The values below come from patent publication US10821115B2, “Compounds that inhibit Mcl-1 protein” (priority 2017, dated 2020).

The test system of test [1] is human multiple myeloma cell line, OPM-2. The test is described as follows: Cell viability assay (OPM-2 10 FBS), CellTiter-Glo. The class given is cell-based. A digest of the protocol: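 Cells were seeded at 3000 cells/well in RPMI 1640 with 10% FBS and exposed to serially diluted compounds for 16 h at 37 °C, 5% CO2.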
A general note: In ATP-based viability assays light output follows the ATP content of the culture.

Test [2] concerns the target recombinant human Mcl-1 (residues 171-327) / Bim interaction (Homo sapiens (Human), UniProt Q07820). The test is described as follows: biochemical. The class given is binding. As to conditions: read-out: Mcl-1 HTRF IC50.
Where [3] appears, read: Homo sapiens, OPM-2, 16 h, read-out: OPM-2 10% FBS IC50 IP, OPM-2 cells, 10% FBS, 16 h incubation.
[4] abbreviates: 0.1 nM Mcl-1(171-327), 0.05 nM biotin-Bim (51-76).
Setting [5] is: Homo sapiens, OPM-2, 16 h, read-out: OPM-2 10% FBS IC50 IP, OPM-2 cells, 10% FBS, 16 h, CellTiter-Glo.
The mark [6] stands for this setting: TR-FRET, Mcl-1(171-327) / biotin-Bim (51-76).
Setting [7] is: read-out: OPM-2 10% FBS IC50 IP, OPM-2 cells, 10% FBS, 16 h, CellTiter-Glo.

Where two headings read alike, the source gives them in different places.

Sequence of recombinant human Mcl-1 (residues 171-327) / Bim interaction (Q07820 171-327): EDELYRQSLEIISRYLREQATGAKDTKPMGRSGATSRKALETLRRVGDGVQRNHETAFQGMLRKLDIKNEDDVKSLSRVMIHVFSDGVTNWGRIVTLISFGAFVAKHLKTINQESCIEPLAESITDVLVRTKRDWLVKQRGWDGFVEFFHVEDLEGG

On to `CO[C@@]1(CN2CCC3(CC2)CN(C)C(=O)O3)/C=C/C[C@H](C)[C@@H](C)S(=O)(=O)NC(=O)c2ccc3c(c2)N(C[C@@H]2CC[C@H]21)C[C@@]1(CCCc2cc(Cl)ccc21)CO3` [Example 290, (1S,3′R,6′R,7′S,8′E,11′S,12′R)-6-chloro-7′-methoxy-11′,12′-dimethyl-7′-((3-methyl-2-oxo-1-oxa-3,8-diazaspiro[4.5]dec-8-yl)methyl)-3,4-dihydro-2H,15′H-spiro[naphthalene-1,22′-[20]oxa[13]thia[1,14]diazatetracyclo [14.7.2.0~3,6~.0~19,24~]pentacosa[8,16,18,24]tetraen]-15′-one 13′,13′-dioxide], for which the IC50 (usually the concentration that inhibits the measured activity by half) was 149 nM in test [1] (setting [3]) and 0.215 nM in test [2] (setting [4]).
For `COCC[C@@H]1[C@@H](C)C/C=C/[C@](CN2CCN(Cc3noc(C)n3)CC2)(OC)[C@@H]2CC[C@H]2CN2C[C@@]3(CCCc4cc(Cl)ccc43)COc3ccc(nc32)C(=O)NS1(=O)=O` [Example 26, (1S,3′R,6′R,7′S,8′E,11′S,12′R)-6-chloro-7′-methoxy-12′-(2-methoxyethyl)-11′-methyl-7′-((4-((5-methyl-1,2,4-oxadiazol-3-yl)methyl)-1-piperazinyl)methyl)-3,4-dihydro-2H,15′H-spiro[naphthalene-1,22′-[20]oxa[13]thia[1,14,25]triazatetracyclo [14.7.2.0~3,6~.0~19,24~]pentacosa[8,16,18,24]tetraen]-15′-one 13′,13′-dioxide], the concentration for half-maximal inhibition (IC50) in test [1] (setting [3]) is 32 nM; in test [2] (setting [4]), 0.079 nM.
The like results for `CO[C@@]1(CN2CCN(C3CN(C)C3)CC2)/C=C/C[C@H](C)[C@@H](C)S(=O)(=O)NC(=O)c2ccc3c(c2)N(C[C@@H]2CC[C@H]21)C[C@@]1(CCCc2cc(Cl)ccc21)CO3` [Example 282, (1S,3′R,6′R,7′S,8′E,11′S,12′R)-6-chloro-7′-methoxy-11′,12′-dimethyl-7′-((4-(1-methyl-3-azetidinyl)-1-piperazinyl)methyl)-3,4-dihydro-2H,15′H-spiro[naphthalene-1,22′-[20]oxa[13]thia[1,14]diazatetracyclo [14.7.2.0~3,6~.0~19,24~]pentacosa[8,16,18,24]tetraen]-15′-one 13′,13′-dioxide] were, in that order, 486 nM and 0.118 nM.
The like results for `CO[C@@]1(CN2CCN(Cc3ncon3)CC2)/C=C/C[C@H](C)[C@@H](C)S(=O)(=O)NC(=O)c2ccc3c(c2)N(C[C@@H]2CC[C@H]21)C[C@@]1(CCCc2cc(Cl)ccc21)CO3` [Example 321, (1S,3′R,6′R,7′S,8′E,11′S,12′R)-6-chloro-7′-methoxy-11′,12′-climethyl-7′-((4-(1,2,4-oxadiazol-3-ylmethyl)-1-piperazinyl)methyl)-3,4-dihydro-2H,15′H-spiro[naphthalene-1,22′-[20]oxa[13]thia[1,14]diazatetracyclo [14.7.2.0~3,6~.0~19,24~]pentacosa[8,16,18,24]tetraen]-15′-one 13′,13′-dioxide] were, in that order, 92 nM and 0.145 nM.
Take `CC(C)OC[C@]1(O)/C=C/C[C@H](C)[C@@H](C)S(=O)(=O)NC(=O)c2ccc3c(c2)N(C[C@@H]2CC[C@H]21)C[C@@]1(CCCc2cc(Cl)ccc21)CO3` [Example 100442, (1S,3′R,6′R,7′S,8′E,11′S,12′R)-6-chloro-7′-hydroxy-11′,12′-dimethyl-7′-((2-propanyloxy)methyl)-3,4-dihydro-2H,15′H-spiro[naphthalene-1,22′-[20]oxa[13]thia[1,14]diazatetracyclo [14.7.2.0~3,6~.0~19,24~]pentacosa[8,16,18,24]tetraen]-15′-one 13′,13′-dioxide]: the half-inhibitory concentration (IC50) in test [1] (setting [5]) was 3870 nM; in test [2] (setting [6]), 0.921 nM.
Consider `C[C@@H]1[C@@H](C)C/C=C/[C@@](O)(Cc2ccccn2)[C@@H]2CC[C@H]2CN2C[C@@]3(CCCc4cc(Cl)ccc43)COc3ccc(cc32)C(=O)NS1(=O)=O` [Example 100242, (1S,3′R,6′R,7′S,8′E,11′S,12′R)-6-chloro-7′-hydroxy-11′,12′-dimethyl-7′-(2-pyridinylmethyl)-3,4-dihydro-2H,15′H-spiro[naphthalene-1,22′-[20]oxa[13]thia[1,14]diazatetracyclo [14.7.2.0~3,6~.0~19,24~]pentacosa[8,16,18,24]tetraen]-15′-one 13′,13′-dioxide], for which the IC50 in test [1] (setting [7]) was 1450 nM; in test [2] (setting [6]) it was 2.15 nM.
Consider `C[C@@H]1[C@@H](C)C/C=C/[C@@](O)(C#CCC2CCOCC2)[C@@H]2CC[C@H]2CN2C[C@@]3(CCCc4cc(Cl)ccc43)COc3ccc(cc32)C(=O)NS1(=O)=O` [Example 100432, (1S,3′R,6′R,7′S,8′E,11′S,12′R)-6-chloro-7′-hydroxy-11′,12′-dimethyl-7′-(3-(tetrahydro-2H-pyran-4-yl)-1-propyn-1-yl)-3,4-dihydro-2H,15′H-spiro[naphthalene-1,22′-[20]oxa[13]thia[1,14]diazatetracyclo [14.7.2.0~3,6~.0~19,24~]pentacosa[8,16,18,24]tetraen]-15′-one 13′,13′-dioxide], for which the half-maximal inhibitory concentration (IC50) in test [1] (setting [5]) is 711 nM; in test [2] (setting [6]) it was 0.228 nM.
Regarding `CO[C@@]1(CN2CCN(C3COC3)CC2)/C=C/[C@H](C)[C@H](C)CS(=O)(=O)NC(=O)c2ccc3c(c2)N(C[C@@H]2CC[C@H]21)C[C@@]1(CCCc2cc(Cl)ccc21)CO3` [Example 158, (1S,3′R,6′R,7′S,8′E,10′S,11′S)-6-chloro-7′-methoxy-10′,11′-dimethyl-7′-((4-(3-oxetanyl)-1-piperazinyl)methyl)-3,4-dihydro-2H,15′H-spiro[naphthalene-1,22′-[20]oxa[13]thia[1,14]diazatetracyclo [14.7.2.0~3,6~.0~19,24~]pentacosa[8,16,18,24]tetraen]-15′-one 13′,13′-dioxide], the values for the IC50 in test [1] (setting [3]) and in test [2] (setting [4]) were 18 nM and 0.092 nM, respectively.
The like results for `COCC[C@@H]1[C@@H](C)C/C=C/[C@](CN2CCN(C(COC)COC)CC2)(OC)[C@@H]2CC[C@H]2CN2C[C@@]3(CCCc4cc(Cl)ccc43)COc3ccc(nc32)C(=O)NS1(=O)=O` [Example 25, (1S,3′R,6′R,7′S,8′E,11′S,12′R)-6-chloro-7′-methoxy-12′-(2-methoxyethyl)-7′-((4-(2-methoxy-1-(methoxymethyl)ethyl)-1-piperazinyl)methyl)-11′-methyl-3,4-dihydro-2H,15′H-spiro[naphthalene-1,22′-[20]oxa[13]thia[1,14,25]triazatetracyclo [14.7.2.0~3,6~.0~19,24~]pentacosa[8,16,18,24]tetraen]-15′-one 13′,13′-dioxide] were, in that order, 41 nM and 0.113 nM.
For `COC(=O)[C@@H](C)NC(=O)C[C@]1(OC)/C=C/C[C@H](C)[C@@H](C)S(=O)(=O)NC(=O)c2ccc3c(c2)N(C[C@@H]2CC[C@H]21)C[C@@]1(CCCc2cc(Cl)ccc21)CO3` [Example 100528, methyl N-(((1S,3′R,6′R,7′S,8′E,11′S,12′R)-6-chloro-7′-methoxy-11′,12′-dimethyl-13′,13′-dioxido-15′-oxo-3,4-dihydro-2H-spiro[naphthalene-1,22′-[20]oxa[13]thia[1,14]diazatetracyclo [14.7.2.0~3,6~.0~19,24~]pentacosa[8,16,18,24]tetraen]-7′-yl)acetyl)-D-alaninate], the IC50 is 257 nM in test [1] (setting [5]) and 0.138 nM in test [2] (setting [6]).
Take `CO[C@@H](C[C@]1(OC)/C=C/C[C@H](C)[C@@H](C)S(=O)(=O)NC(=O)c2ccc3c(c2)N(C[C@@H]2CC[C@H]21)C[C@@]1(CCCc2cc(Cl)ccc21)CO3)C1CC1` [Example 100463, (1S,3′R,6′R,7′S,8′E,11′S,12′R)-6-chloro-7′-((2S)-2-cyclopropyl-2-methoxyethyl)-7′-methoxy-11′,12′-dimethyl-3,4-dihydro-2H,15′H-spiro[naphthalene-1,22′-[20]oxa[13]thia[1,14]diazatetracyclo [14.7.2.0~3,6~.0~19,24~]pentacosa[8,16,18,24]tetraen]-15′-one 13′,13′-dioxide]: the 50% inhibitory concentration (IC50) was 1130 nM in test [1] (setting [7]) and 0.383 nM in test [2] (setting [6]).
In the case of `Cc1nc([C@]2(O)/C=C/C[C@H](C)[C@@H](C)S(=O)(=O)NC(=O)c3ccc4c(c3)N(C[C@@H]3CC[C@H]32)C[C@@]2(CCCc3cc(Cl)ccc32)CO4)cs1` [Example 100516, (1S,3′R,6′R,7′S,8′E,11′S,12′R)-6-chloro-7′-hydroxy-11′,12′-dimethyl-7′-(2-methyl-1,3-thiazol-4-yl)-3,4-dihydro-2H,15′H-spiro[naphthalene-1,22′-[20]oxa[13]thia[1,14]diazatetracyclo [14.7.2.0~3,6~.0~19,24~]pentacosa[8,16,18,24]tetraen]-15′-one 13′,13′-dioxide], the half-maximal inhibitory concentration (IC50) in test [1] (setting [5]) worked out at 1900 nM; in test [2] (setting [6]) it was 3.36 nM.
For `C[C@@H]1[C@@H](C)CCC[C@@](O)(CC(=O)N2CCOCC2)[C@@H]2CC[C@H]2CN2C[C@@]3(CCCc4cc(Cl)ccc43)COc3ccc(cc32)C(=O)NS1(=O)=O` [Example 100086, (1S,3′R,6′R,7′R,11′S,12′R)-6-chloro-7′-hydroxy-11′,12′-dimethyl-7′-(2-(4-morpholinyl)-2-oxoethyl)-3,4-dihydro-2H,15′H-spiro[naphthalene-1,22′-[20]oxa[13]thia[1,14]diazatetracyclo [14.7.2.0~3,6~.0~19,24~]pentacosa[16,18,24]trien]-15′-one 13′,13′-dioxide] the same measures were 390 nM and 0.537 nM.
For `C[C@@H]1[C@@H](C)CCC[C@@](O)(CC#N)[C@@H]2CC[C@H]2CN2C[C@@]3(CCCc4cc(Cl)ccc43)COc3ccc(cc32)C(=O)NS1(=O)=O` (single isomer, unassigned) [Example 100081] the same measures were 5930 nM and 7.33 nM.
